We go through 8 compounds from ChEMBL document CHEMBL3112506, “Synthesis and structure-activity relationship studies of 4-((2-hydroxy-3-methoxybenzyl)amino)benzenesulfonamide derivatives as potent and selective inhibitors of 12-lipoxygenase” (J Med Chem, 2014).

Molecules are shown by their SMILES. Active and inactive are the calls of the source. The rule behind the calls is not given here. Some results are limits rather than exact numbers.

Data set [1] deals with T1, Polyunsaturated fatty acid lipoxygenase ALOX12 (Homo sapiens, UniProt P18054).
T1 sequence (P18054 whole entry): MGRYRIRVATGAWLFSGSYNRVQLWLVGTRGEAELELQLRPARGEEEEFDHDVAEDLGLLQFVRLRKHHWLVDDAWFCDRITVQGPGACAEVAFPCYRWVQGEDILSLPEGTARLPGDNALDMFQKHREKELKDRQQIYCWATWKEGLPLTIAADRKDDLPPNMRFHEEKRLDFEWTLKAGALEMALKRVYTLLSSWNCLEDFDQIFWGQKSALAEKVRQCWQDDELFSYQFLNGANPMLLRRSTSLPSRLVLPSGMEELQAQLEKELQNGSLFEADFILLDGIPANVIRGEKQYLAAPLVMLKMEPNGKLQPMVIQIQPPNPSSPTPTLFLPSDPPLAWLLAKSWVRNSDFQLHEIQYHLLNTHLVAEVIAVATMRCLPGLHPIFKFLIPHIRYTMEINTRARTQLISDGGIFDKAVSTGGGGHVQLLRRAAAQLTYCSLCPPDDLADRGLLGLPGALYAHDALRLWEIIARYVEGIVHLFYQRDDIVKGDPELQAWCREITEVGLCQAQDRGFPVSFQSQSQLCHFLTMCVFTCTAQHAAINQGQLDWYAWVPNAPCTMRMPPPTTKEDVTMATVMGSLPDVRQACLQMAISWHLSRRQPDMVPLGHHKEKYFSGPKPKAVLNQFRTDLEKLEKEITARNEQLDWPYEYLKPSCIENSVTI

For data set [2], the target named is Cyclooxygenase (Homo sapiens) (UniProt P35354+P23219). The data set is described as follows: Inhibition of COX1/COX2 (unknown origin) using arachidonic acid as substrate assessed as consumption of oxygen preincubated for 5 mins followed by substrate addition at 15 uM. The class given is protein assay.
For data set [3], the target named is T2, Polyunsaturated fatty acid lipoxygenase ALOX15 (Homo sapiens, UniProt P16050).
T2 sequence (P16050 whole entry): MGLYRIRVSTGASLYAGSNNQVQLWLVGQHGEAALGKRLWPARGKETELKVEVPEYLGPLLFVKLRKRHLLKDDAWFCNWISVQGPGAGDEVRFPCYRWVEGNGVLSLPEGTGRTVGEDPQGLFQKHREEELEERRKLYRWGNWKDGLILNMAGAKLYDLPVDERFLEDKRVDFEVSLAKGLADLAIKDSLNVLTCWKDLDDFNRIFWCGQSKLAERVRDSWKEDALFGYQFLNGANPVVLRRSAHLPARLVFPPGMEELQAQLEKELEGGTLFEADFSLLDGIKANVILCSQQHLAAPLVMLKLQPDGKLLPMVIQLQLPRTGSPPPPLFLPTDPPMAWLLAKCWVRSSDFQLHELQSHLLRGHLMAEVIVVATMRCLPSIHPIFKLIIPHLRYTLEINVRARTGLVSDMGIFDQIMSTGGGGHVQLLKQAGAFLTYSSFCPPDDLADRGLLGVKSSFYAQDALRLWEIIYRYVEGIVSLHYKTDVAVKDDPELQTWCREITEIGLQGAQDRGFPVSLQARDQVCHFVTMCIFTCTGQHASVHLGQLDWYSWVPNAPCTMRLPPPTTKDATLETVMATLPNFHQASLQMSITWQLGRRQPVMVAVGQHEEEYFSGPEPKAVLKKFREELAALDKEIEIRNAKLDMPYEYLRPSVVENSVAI

For data set [4], the species on record is Rattus norvegicus. The data set is described as follows: Metabolic stability in rat assessed as glucuronidation. It counts as ADME, organism-based. The note with it: in vitro.
Data set [5] concerns Liver microsome. As to the kind of experiment: Metabolic stability in rat liver microsomes measured over 1 hr in absence of NADPH. It counts as ADME. In general terms: Liver microsomes are vesicles of endoplasmic reticulum, rich in cytochrome P450 enzymes.
The nature of data set [6]: Metabolic stability in mouse liver microsomes measured over 1 hr in absence of NADPH. The class given is ADME, Microsome.
For data set [7], the target named is T3, Polyunsaturated fatty acid lipoxygenase ALOX12 (Mus musculus) (UniProt P39655).
T3 sequence (whole entry): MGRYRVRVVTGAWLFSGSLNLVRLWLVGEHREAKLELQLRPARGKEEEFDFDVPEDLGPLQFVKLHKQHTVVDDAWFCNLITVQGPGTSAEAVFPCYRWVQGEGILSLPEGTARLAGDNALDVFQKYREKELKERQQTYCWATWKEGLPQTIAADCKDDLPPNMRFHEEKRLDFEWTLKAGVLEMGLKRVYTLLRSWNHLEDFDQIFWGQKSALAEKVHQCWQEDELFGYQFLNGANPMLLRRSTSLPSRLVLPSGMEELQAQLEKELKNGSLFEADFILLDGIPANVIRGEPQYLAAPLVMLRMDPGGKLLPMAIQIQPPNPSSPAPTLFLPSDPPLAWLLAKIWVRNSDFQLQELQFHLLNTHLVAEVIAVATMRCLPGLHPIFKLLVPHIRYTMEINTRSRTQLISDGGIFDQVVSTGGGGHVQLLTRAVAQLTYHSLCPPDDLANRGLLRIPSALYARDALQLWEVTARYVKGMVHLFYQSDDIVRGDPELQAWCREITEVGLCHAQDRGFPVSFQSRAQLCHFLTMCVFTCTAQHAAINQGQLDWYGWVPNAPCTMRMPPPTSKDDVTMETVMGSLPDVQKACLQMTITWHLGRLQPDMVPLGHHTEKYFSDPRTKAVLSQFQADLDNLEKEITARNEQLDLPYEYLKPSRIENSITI
As to the kind of experiment: Inhibition of 12-LOX in mouse BTC3 cells assessed as inhibition of arachidonic acid/calcium ionophore-induced 12-HETE production after 4 hrs by ELISA. The class given is cell-based. In general terms: An ELISA detects its analyte on a solid surface through an enzyme-linked reagent.

A short description of data set [8]: Aqueous solubility of the compound in PBS buffer at pH 7.4 by chemiluminescent nitrogen detection method. It counts as physicochemical.
Data set [9] can be described thus: Stability of the compound in PBS buffer at pH 7.4 measured at 48 hrs. It counts as physicochemical. The settings on record: read-out: Stability.
A short description of data set [10]: Metabolic stability in mouse plasma assessed as compound remaining measured at 2 hrs. The class given is ADME, cell-free. The note with it: read-out: Stability.
A short description of data set [11]: Stability of the compound in aqueous buffer at pH 2 to 9. The class given is physicochemical.
The test system of data set [12] is Mus musculus. The data set is described as follows: Cmax in CD-1 mouse at 3 mg/kg, iv. It counts as ADME, organism-based. Details: dose 3 mg/kg, route intravenous. The settings on record: in vivo.
For data set [13], the system named is Mus musculus. As to the kind of experiment: Volume of distribution in CD-1 mouse at 3 mg/kg, iv. The note with it: in vivo. Details: dose 3 mg/kg, route intravenous. It counts as ADME, organism-based.
The nature of data set [14]: Aqueous solubility of the compound in PBS buffer at pH 7.4 by LC-UV spectroscopic analysis. The class given is physicochemical.
A short description of data set [15]: Stability of the compound in HEPES buffer at pH 7.3. It counts as physicochemical.
The subject of data set [16] is Mus musculus. The data set is described as follows: AUC (infinity) in CD-1 mouse at 3 mg/kg, iv. The settings on record: in vivo. It counts as ADME, organism-based, Plasma. Details: dose 3 mg/kg, route intravenous, time infinity.
A short description of data set [17]: Stability of the compound in presence of glutathione. The class given is ADME.
In data set [18] the test system is Mus musculus. The data set is described as follows: Cmax in CD-1 mouse at 30 mg/kg, po. The settings on record: in vivo. It counts as ADME, organism-based. Details: dose 30 mg/kg, route oral.
Data set [19] deals with Mus musculus. As to the kind of experiment: AUC (infinity) in CD-1 mouse at 30 mg/kg, po. The class given is ADME, organism-based, Plasma. Further details: time infinity, dose 30 mg/kg, route oral. The settings on record: in vivo.

In turn, `Nc1ccccc1CNc1ccc(S(=O)(=O)Nc2nccs2)cc1` gave an IC50 in [1] above 40 µM.

Turning to `O=S(=O)(Nc1nccs1)c1ccc(NCc2cccc(O)c2)cc1`, the concentration for half-maximal inhibition (IC50) in data set [1] is above 40 µM.

`COc1cccc(CNc2ccc(S(=O)(=O)Nc3nc4ccccc4[nH]3)cc2)c1O`: the inhibition result in [2] is “inactive”.

Regarding `O=S(=O)(Nc1nc2ccccc2s1)c1ccc(NCc2cccc(Cl)c2O)cc1`, the concentration for half-maximal inhibition (IC50) in [3] was 1.3 µM. For the same compound, the Stability entry in data set [4] is reported as “Unstable”.

In the case of `COc1cccc(CNc2ccc(S(=O)(=O)Nc3nc4ccccc4o3)cc2)c1O`, the Stability result in data set [5] and in data set [6] was “Stable” in each case. For the same compound, the inhibition entry in data set [7] was “Active”. In addition, the solubility result in [8] is given as “soluble”. The remaining at 48 h in [9] is 100%. In addition, in [2], the inhibition result was “inactive”. The remaining at 2 h in data set [10] worked out at 100%.

In the case of `COc1cccc(CNc2ccc(S(=O)(=O)Nc3nc4ccccc4s3)cc2)c1O` [VLX-1005], the Stability entry in data set [11], in data set [5], in [6], in data set [15] and in data set [17] was “Stable” each time. Moreover, the highest concentration (Cmax) in data set [12] came out at 112 µM; in data set [18], 38 µM. Further, in data set [13], the Vd turned out to be 0.55 L/kg. Further, the solubility entry in data set [8] was “soluble”; in [14], below 5 µg/mL. Also, the AUC in data set [16] came to 34 µM·h; in data set [19], 67 µM·h. Besides, the inhibition result in data set [2] was “inactive”.

`O=S(=O)(Nc1nccs1)c1ccc(NCc2ccccc2O)cc1`: the half-inhibitory concentration (IC50) in data set [1] is above 40 µM.

In turn, `O=S(=O)(Nc1nccs1)c1ccc(NCc2ccccc2)cc1` gave an IC50 in [1] above 40 µM.

As usually defined, the IC50 is the concentration at which inhibition is half-maximal. A low value points to greater potency. What is called solubility is the dissolved amount per volume that the medium holds. Low values mean little dissolved substance, high ones much dissolved substance. Broadly, the Cmax is the peak of the concentration-time curve. One may read the Vd as the apparent volume that relates the amount in the body to the concentration in plasma or blood. Low values mean confinement near the circulation, high ones extensive tissue distribution. What is called AUC is the area under the concentration-time curve, a measure of exposure. Lower therefore signals low exposure.
